Source: PubChem BioAssay AID1963448 (Molecular Pharmacology Branch, DTP, NCI, 2024)

System: 616215-338-R-J1-PDC complex spheroid growth, % test/control
Assay: Anticancer human tumor 616215-338-R-J1-PDC patient-derived colon adenocarcinoma cell line growth inhibition [Asc]
Settings: for IC50: curve of first compound; for viability, T/C: stronger effect = lower value
Outline: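 Tumor cells were grown as complex spheroids with human endothelial cells (HUVEC) and human mesenchymal stem cells as stroma. Agents were tested alone and in combination, in half-log steps down from the clinical Cmax, or from 10 microM where Cmax was unknown.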

[1] = second compound 0.03 µM, first compound 0.00316 µM
[2] = second compound 0.03 µM, first compound 0.01 µM
[3] = second compound 0.03 µM, first compound 0.0316 µM
[4] = second compound 0.03 µM, first compound 0.1 µM
[5] = second compound 0.03 µM, first compound 0.316 µM
[6] = second compound 0.03 µM, first compound 1 µM
[7] = second compound 0.0949 µM, first compound 0.00316 µM
[8] = second compound 0.0949 µM, first compound 0.01 µM
[9] = second compound 0.0949 µM, first compound 0.0316 µM
[10] = second compound 0.0949 µM, first compound 0.1 µM
[11] = second compound 0.0949 µM, first compound 0.316 µM
[12] = second compound 0.0949 µM, first compound 1 µM
[13] = second compound 0.3 µM, first compound 0.00316 µM
[14] = second compound 0.3 µM, first compound 0.01 µM
[15] = second compound 0.3 µM, first compound 0.0316 µM
[16] = second compound 0.3 µM, first compound 0.1 µM
[17] = second compound 0.3 µM, first compound 0.316 µM
[18] = second compound 0.3 µM, first compound 1 µM
[19] = second compound 0.949 µM, first compound 0.00316 µM
[20] = second compound 0.949 µM, first compound 0.01 µM
[21] = second compound 0.949 µM, first compound 0.0316 µM
[22] = second compound 0.949 µM, first compound 0.1 µM
[23] = second compound 0.949 µM, first compound 0.316 µM
[24] = second compound 0.949 µM, first compound 1 µM
[25] = second compound 3 µM, first compound 0.00316 µM
[26] = second compound 3 µM, first compound 0.01 µM
[27] = second compound 3 µM, first compound 0.0316 µM
[28] = second compound 3 µM, first compound 0.1 µM
[29] = second compound 3 µM, first compound 0.316 µM
[30] = second compound 3 µM, first compound 1 µM
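Also: spheroids exposed to agents for seven days before readout.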
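For viability, T/C in this document: 100% = DMSO vehicle control viability.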

Compound: O=C(c1ccc(F)c(F)c1Nc1ccc(I)cc1F)N1CC(O)([C@@H]2CCCCN2)C1 + CCN1C(C(=O)NC23CCC(C(=O)O)(CC2)CC3)C(c2cccc(Cl)c2F)C2(C(=O)Nc3cc(Cl)ccc32)C12CCCCC2
- IC50 (second compound 0.03 µM): 0.07 µM
- IC50 (second compound 0.0949 µM): 0.0529 µM
- IC50 (second compound 0.3 µM): 0.0164 µM
- IC50 (second compound 0.949 µM): 0.00581 µM
- IC50 (second compound 3 µM): < 0.00316 µM
- viability, T/C [1]: 89.9%
- viability, T/C [2]: 88.6%
- viability, T/C [3]: 90.1%
- viability, T/C [4]: 32.3%
- viability, T/C [5]: 0.26%
- viability, T/C [6]: 0.38%
- viability, T/C [7]: 93.8%
- viability, T/C [8]: 93.6%
- viability, T/C [9]: 74.5%
- viability, T/C [10]: 19.6%
- viability, T/C [11]: 0.23%
- viability, T/C [12]: 0.37%
- viability, T/C [13]: 59.8%
- viability, T/C [14]: 57.7%
- viability, T/C [15]: 38.8%
- viability, T/C [16]: 3%
- viability, T/C [17]: 1.18%
- viability, T/C [18]: 1.93%
- viability, T/C [19]: 55.5%
- viability, T/C [20]: 44.2%
- viability, T/C [21]: 23.3%
- viability, T/C [22]: 2.29%
- viability, T/C [23]: 1.21%
- viability, T/C [24]: 3.73%
- viability, T/C [25]: 40.3%
- viability, T/C [26]: 36%
- viability, T/C [27]: 3.79%
- viability, T/C [28]: 0.28%
- viability, T/C [29]: 0.56%
- viability, T/C [30]: 2.69%

Compound: CNC(C)C(=O)NC1CN(S(=O)(=O)c2cccc(S(=O)(=O)N3CCC4CCC(C(=O)NC(c5ccccc5)c5ccccc5)N4C(=O)C(NC(=O)C(C)NC)C3)c2)CCC2CCC(C(=O)NC(c3ccccc3)c3ccccc3)N2C1=O (stereo not given) + CCN1C(C(=O)NC23CCC(C(=O)O)(CC2)CC3)C(c2cccc(Cl)c2F)C2(C(=O)Nc3cc(Cl)ccc32)C12CCCCC2
- IC50 (second compound 0.03 µM): > 1 µM
- IC50 (second compound 0.0949 µM): > 1 µM
- IC50 (second compound 0.3 µM): > 1 µM
- IC50 (second compound 0.949 µM): > 1 µM
- IC50 (second compound 3 µM): < 0.00316 µM
- viability, T/C [1]: 95.2%
- viability, T/C [2]: 96.1%
- viability, T/C [3]: 87.4%
- viability, T/C [4]: 97.2%
- viability, T/C [5]: 91%
- viability, T/C [6]: 87%
- viability, T/C [7]: 90.9%
- viability, T/C [8]: 91.4%
- viability, T/C [9]: 95.7%
- viability, T/C [10]: 86.6%
- viability, T/C [11]: 76%
- viability, T/C [12]: 81.3%
- viability, T/C [13]: 74.1%
- viability, T/C [14]: 58.8%
- viability, T/C [15]: 62.3%
- viability, T/C [16]: 58.9%
- viability, T/C [17]: 66.5%
- viability, T/C [18]: 61.2%
- viability, T/C [19]: 71.5%
- viability, T/C [20]: 75.5%
- viability, T/C [21]: 67.4%
- viability, T/C [22]: 63.5%
- viability, T/C [23]: 72.8%
- viability, T/C [24]: 78.5%
- viability, T/C [25]: 41.1%
- viability, T/C [26]: 49.4%
- viability, T/C [27]: 51.6%
- viability, T/C [28]: 48.7%
- viability, T/C [29]: 47.2%
- viability, T/C [30]: 52.8%

Compound: C=C(F)C(=O)N1CCN(c2nc(OCC3CCCN3C)nc3c2CCN(c2cccc4cccc(Cl)c24)C3)CC1CC#N (stereo not given) + Cc1c(S(C)(=O)=O)c(-c2cc(F)cc(N3CCN(c4ccc(NS(=O)(=O)c5ccc(NC(CCN6CCC(C(=O)OCCCP(=O)(O)O)CC6)CSc6ccccc6)c(S(=O)(=O)C(F)(F)F)c5)cc4)CC3)c2)c(-c2ccc(Cl)cc2)n1C(C)C
- IC50 (second compound 0.1 µM): 5.43 µM
- IC50 (second compound 0.316 µM): 4.9 µM
- IC50 (second compound 1 µM): 2.95 µM
- IC50 (second compound 3.16 µM): < 0.0316 µM
- IC50 (second compound 10 µM): < 0.0316 µM
- viability, T/C (second compound 0.1 µM, first compound 0.0316 µM): 93.2%
- viability, T/C (second compound 0.1 µM, first compound 0.1 µM): 91.6%
- viability, T/C (second compound 0.1 µM, first compound 0.316 µM): 87.8%
- viability, T/C (second compound 0.1 µM, first compound 1 µM): 100%
- viability, T/C (second compound 0.1 µM, first compound 3.16 µM): 96.1%
- viability, T/C (second compound 0.1 µM, first compound 10 µM): 0.45%
- viability, T/C (second compound 0.316 µM, first compound 0.0316 µM): 89.1%
- viability, T/C (second compound 0.316 µM, first compound 0.1 µM): 89.3%
- viability, T/C (second compound 0.316 µM, first compound 0.316 µM): 85.6%
- viability, T/C (second compound 0.316 µM, first compound 1 µM): 88.5%
- viability, T/C (second compound 0.316 µM, first compound 3.16 µM): 80.4%
- viability, T/C (second compound 0.316 µM, first compound 10 µM): 0.42%
- viability, T/C (second compound 1 µM, first compound 0.0316 µM): 65%
- viability, T/C (second compound 1 µM, first compound 0.1 µM): 70.8%
- viability, T/C (second compound 1 µM, first compound 0.316 µM): 67.9%
- viability, T/C (second compound 1 µM, first compound 1 µM): 62.8%
- viability, T/C (second compound 1 µM, first compound 3.16 µM): 49.4%
- viability, T/C (second compound 1 µM, first compound 10 µM): 0.39%
- viability, T/C (second compound 3.16 µM, first compound 0.0316 µM): 37.2%
- viability, T/C (second compound 3.16 µM, first compound 0.1 µM): 36.6%
- viability, T/C (second compound 3.16 µM, first compound 0.316 µM): 35.4%
- viability, T/C (second compound 3.16 µM, first compound 1 µM): 32%
- viability, T/C (second compound 3.16 µM, first compound 3.16 µM): 2.23%
- viability, T/C (second compound 3.16 µM, first compound 10 µM): 0.3%
- viability, T/C (second compound 10 µM, first compound 0.0316 µM): 26.4%
- viability, T/C (second compound 10 µM, first compound 0.1 µM): 23.3%
- viability, T/C (second compound 10 µM, first compound 0.316 µM): 20.3%
- viability, T/C (second compound 10 µM, first compound 1 µM): 18.8%
- viability, T/C (second compound 10 µM, first compound 3.16 µM): 1.56%
- viability, T/C (second compound 10 µM, first compound 10 µM): 0.39%
